According to patent publication US20050209278A1, “Piperidinyl- and piperazinyl-sulfonylmethyl hydroxamic acids and their use as protease inhibitors” (priority 2002, published 2005):
Structures can show the parent of a compound that is named as a salt. Where two headings read alike, the source gives them in different places.

Key:
Type in all cases: biochemical
MMP-13 = target: T1, MMP-13 (Homo sapiens, UniProt P45452); experiment: MMP-13 inhibition (in vitro Ki)
T1 construct: made in house; host or cells: baculovirus / insect cells

MMP-2 = target: T2, MMP-2 (Homo sapiens, UniProt P08253); experiment: MMP-2 inhibition (in vitro Ki)
T2 construct: made in house; host or cells: MMP-2-transfected p2AHT2 cells
T2 sequence (P08253 110-660): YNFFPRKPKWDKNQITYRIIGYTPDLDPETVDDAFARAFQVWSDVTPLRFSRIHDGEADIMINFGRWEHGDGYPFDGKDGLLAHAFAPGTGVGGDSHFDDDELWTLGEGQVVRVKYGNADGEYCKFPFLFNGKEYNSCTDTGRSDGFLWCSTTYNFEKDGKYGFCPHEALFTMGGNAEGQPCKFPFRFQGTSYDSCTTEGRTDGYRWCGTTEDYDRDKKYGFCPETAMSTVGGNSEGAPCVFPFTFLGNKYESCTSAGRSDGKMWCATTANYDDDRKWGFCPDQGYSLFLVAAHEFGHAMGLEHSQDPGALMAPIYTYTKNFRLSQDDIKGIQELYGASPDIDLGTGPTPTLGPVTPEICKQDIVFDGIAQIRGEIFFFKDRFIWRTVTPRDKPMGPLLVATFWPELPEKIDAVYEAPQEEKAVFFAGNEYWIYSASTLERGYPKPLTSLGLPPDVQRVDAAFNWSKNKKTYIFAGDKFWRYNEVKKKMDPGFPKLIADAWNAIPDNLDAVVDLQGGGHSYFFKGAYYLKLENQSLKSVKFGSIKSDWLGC

MMP-9 = target: T3, MMP-9 (Homo sapiens, UniProt P14780); experiment: MMP-9 inhibition (in vitro Ki)
T3 construct: made in house; host or cells: MMP-9-transfected HT1080 cells (spent media)

MMP-14 = target: T4, MMP-14 (Homo sapiens, UniProt P50281); experiment: MMP-14 inhibition (in vitro Ki)
T4 construct: The catalytic domain enzyme was expressed in E. coli inclusion bodies, solubilized in urea; made in house

MMP-1 = target: T5, MMP-1 (Homo sapiens, UniProt P03956); experiment: MMP-1 inhibition (in vitro Ki)
T5 construct: made in house; host or cells: MMP-1-transfected HT-1080 cells (spent media)
T5 sequence (P03956 100-469): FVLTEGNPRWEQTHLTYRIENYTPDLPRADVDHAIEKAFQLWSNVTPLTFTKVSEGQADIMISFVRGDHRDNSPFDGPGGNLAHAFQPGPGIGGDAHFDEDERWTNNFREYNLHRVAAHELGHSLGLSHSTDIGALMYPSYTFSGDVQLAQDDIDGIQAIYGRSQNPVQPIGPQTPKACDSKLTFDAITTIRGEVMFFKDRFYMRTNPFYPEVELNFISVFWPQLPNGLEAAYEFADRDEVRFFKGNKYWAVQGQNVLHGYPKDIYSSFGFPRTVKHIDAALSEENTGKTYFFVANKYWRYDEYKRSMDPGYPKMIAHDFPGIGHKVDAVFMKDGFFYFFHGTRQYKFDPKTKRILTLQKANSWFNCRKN

[1] = Table 9, read-out: MMP-13 Ki (IC-50)
[2] = Table 9, read-out: MMP-2 Ki (IC-50)
[3] = Table 9, read-out: MMP-9 Ki (IC-50)
[4] = Table 9, read-out: MMP-14 Ki (IC-50)
[5] = Table 9, read-out: MMP-1 Ki (IC-50)

T3 sequence (P14780 107-707 limits assumed): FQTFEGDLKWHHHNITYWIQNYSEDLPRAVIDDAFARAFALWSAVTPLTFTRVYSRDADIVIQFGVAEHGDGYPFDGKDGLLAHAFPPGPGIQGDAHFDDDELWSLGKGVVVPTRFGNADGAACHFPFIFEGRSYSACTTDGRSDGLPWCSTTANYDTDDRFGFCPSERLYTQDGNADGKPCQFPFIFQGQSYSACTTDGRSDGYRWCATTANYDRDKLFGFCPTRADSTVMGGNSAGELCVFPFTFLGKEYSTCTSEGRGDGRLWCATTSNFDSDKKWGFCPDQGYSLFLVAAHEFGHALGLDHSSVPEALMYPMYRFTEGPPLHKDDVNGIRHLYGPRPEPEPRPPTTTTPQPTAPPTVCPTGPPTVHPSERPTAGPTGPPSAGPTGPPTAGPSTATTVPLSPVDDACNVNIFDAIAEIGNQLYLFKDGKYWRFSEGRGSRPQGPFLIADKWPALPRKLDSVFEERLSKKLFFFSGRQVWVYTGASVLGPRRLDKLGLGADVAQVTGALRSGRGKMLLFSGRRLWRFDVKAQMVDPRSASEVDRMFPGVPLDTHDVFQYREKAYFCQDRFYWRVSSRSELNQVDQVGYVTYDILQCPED

| Ki (MMP-13; Table 8, read-out: MMP-13 Ki) | Ki (MMP-2; Table 8, read-out: MMP-2 Ki) | Ki (MMP-9; Table 8, read-out: MMP-9 Ki) | Ki (MMP-14; Table 8, read-out: MMP-14 Ki) | Ki (MMP-1; Table 8, read-out: MMP-1 Ki) | Ki (MMP-13; [1]) | Ki (MMP-2; [2]) | Ki (MMP-9; [3]) | Ki (MMP-14; [4]) | Ki (MMP-1; [5]) | Structure (SMILES) |
| --- | --- | --- | --- | --- | --- | --- | --- | --- | --- | --- |
| 5.92 nM | 3.51 nM | 0.95 nM | 1940 nM | > 10000 nM | – | – | – | – | – | CCCCCCOC1CCN(S(=O)(=O)C2(C(=O)NO)CCOCC2)CC1 [Example A36, 4-(4-hexyloxy-piperidine-1-sulfonyl)-tetrahydro-pyran-4-carboxylic Acid Hydroxyamide] |
| – | – | – | – | – | 2.14 nM | 4.25 nM | 16.8 nM | 3380 nM | 5850 nM | Cn1cc(-c2ccc(C3CCN(S(=O)(=O)C4(C(=O)NO)CCOCC4)CC3)nc2)cn1 [Example A201] |
| – | – | – | – | – | 44.8 nM | 76.1 nM | 42.9 nM | > 10000 nM | > 10000 nM | CCN(C(=O)CCCC1CCN(S(=O)(=O)C2(C(=O)NO)CCOCC2)CC1)c1ccccc1 [Example A147] |
| – | – | – | – | – | 0.66 nM | 29.3 nM | 471 nM | 8570 nM | 1030 nM | O=C(CCCCC1CCN(S(=O)(=O)C2(C(=O)NO)CCOCC2)CC1)Nc1ccc(OC(F)(F)F)cc1 [Example A89] |
| – | – | – | – | – | 5.21 nM | 6.67 nM | 3.79 nM | 1730 nM | 2710 nM | COC(=O)CCCC1CCN(S(=O)(=O)C2(C(=O)NO)CCOCC2)CC1 [Example A148] |
| – | – | – | – | – | 1.58 nM | 60 nM | 382 nM | > 10000 nM | 277 nM | C#CCN(C)C(=O)CCCCC1CCN(S(=O)(=O)C2(C(=O)NO)CCOCC2)CC1 [Example A83] |
| – | – | – | – | – | 0.17 nM | 38.2 nM | 191 nM | > 10000 nM | 1620 nM | O=C(CCCCC1CCN(S(=O)(=O)C2(C(=O)NO)CCOCC2)CC1)N1CCN(c2ccccc2)CC1 [Example A98] |
| – | – | – | – | – | 66.4 nM | 358 nM | 184 nM | > 10000 nM | > 10000 nM | Cc1ccc(N(C)C(=O)CCCC2CCN(S(=O)(=O)C3(C(=O)NO)CCOCC3)CC2)cc1 [Example A142] |
| – | – | – | – | – | 0.437 nM | 0.881 nM | 0.596 nM | 1950 nM | > 10000 nM | O=C(NO)C1(S(=O)(=O)N2CCC(c3ccc(CCC(F)(F)C(F)(F)F)cn3)CC2)CCN(c2ncccn2)CC1 [Example A178] |
| – | – | – | – | – | 0.48 nM | 0.33 nM | 2.03 nM | 1150 nM | 4300 nM | COC(=O)CCCC#Cc1ccc(C2CCN(S(=O)(=O)C3(C(=O)NO)CCOCC3)CC2)nc1 [Example A136] |
| – | – | – | – | – | 1.91 nM | 2.65 nM | 3.99 nM | 8580 nM | 1840 nM | CCCC(=O)c1ccc(C2CCN(S(=O)(=O)C3(C(=O)NO)CCOCC3)CC2)nc1 [Example A159] |
| – | – | – | – | – | 1.57 nM | 3.14 nM | 9.5 nM | > 10000 nM | 4550 nM | CCCC(F)(F)c1ccc(C2CCN(S(=O)(=O)C3(C(=O)NO)CCOCC3)CC2)nc1 [Example A156] |
| 19.9 nM | 11.9 nM | 39.1 nM | 4060 nM | > 10000 nM | – | – | – | – | – | CC(C)CCCOC1CCN(S(=O)(=O)C2(C(=O)NO)CCOCC2)CC1 [Example A36D] |
| – | – | – | – | – | 0.647 nM | 1.67 nM | 0.979 nM | 7210 nM | > 10000 nM | O=C(NO)C1(S(=O)(=O)N2CCC(c3ccc(CCC(F)(F)C(F)(F)F)cn3)CC2)CCN(c2cccnc2)CC1 [Example A165] |
| – | – | – | – | – | 3.11 nM | 3.42 nM | 0.59 nM | 7290 nM | 3040 nM | CCC(CC)(C(=O)NO)S(=O)(=O)N1CCC(c2ccc(OCC3CC3)cn2)CC1 [Example A124] |
| – | – | – | – | – | 0.04 nM | 0.06 nM | 0.84 nM | 287 nM | 287 nM | O=C(NO)C1(S(=O)(=O)N2CCN(c3ccc(-c4nnn(CC(F)(F)F)n4)cc3)CC2)CCOCC1 [Example A199] |

| Ki (MMP-13; Table 8, read-out: MMP-13 Ki) | Ki (MMP-2; Table 8, read-out: MMP-2 Ki) | Ki (MMP-9; Table 8, read-out: MMP-9 Ki) | Ki (MMP-14; Table 8, read-out: MMP-14 Ki) | Ki (MMP-1; Table 8, read-out: MMP-1 Ki) | Ki (MMP-13; [1]) | Ki (MMP-2; [2]) | Ki (MMP-9; [3]) | Ki (MMP-14; [4]) | Ki (MMP-1; [5]) | Structure (SMILES) |
| --- | --- | --- | --- | --- | --- | --- | --- | --- | --- | --- |
| – | – | – | – | – | 0.901 nM | 1080 nM | 8280 nM | > 10000 nM | > 10000 nM | O=C(/C=C/C=C/C1CCN(S(=O)(=O)C2(C(=O)NO)CCOCC2)CC1)N1Cc2ccccc2C1 [Example A82] |
| – | – | – | – | – | 1.53 nM | 1.34 nM | 0.72 nM | 3100 nM | > 10000 nM | O=C(NO)C1(S(=O)(=O)N2CCC(c3cnc(OCC4CC4)cn3)CC2)CCOCC1 [Example A151] |
| 4.38 nM | 7.8 nM | 10.3 nM | 6550 nM | > 10000 nM | – | – | – | – | – | O=C(NO)C1(S(=O)(=O)N2CCC(CCCOCCCC(F)(F)F)CC2)CCOCC1 [Example A36J] |
| – | – | – | – | – | 0.389 nM | 239 nM | 1890 nM | > 10000 nM | 5450 nM | O=C(/C=C/C=C/C1CCN(S(=O)(=O)C2(C(=O)NO)CCOCC2)CC1)N1CCc2ccccc21 [Example A80] |
| – | – | – | – | – | 1.18 nM | 197 nM | 823 nM | > 10000 nM | 2820 nM | CN(C(=O)CCCCC1CCN(S(=O)(=O)C2(C(=O)NO)CCOCC2)CC1)c1ccccc1 [Example A94] |
| – | – | – | – | – | 1.24 nM | 1.31 nM | 0.36 nM | 3620 nM | 4070 nM | O=C(NO)C1(S(=O)(=O)N2CCC(c3ccc(OCC4CC4)cn3)CC2)CCOCC1 [Example A172] |
| – | – | – | – | – | 0.43 nM | 0.58 nM | 0.08 nM | 1280 nM | 5160 nM | O=C(NO)C1(S(=O)(=O)N2CCC(c3ccc(CCC4CC4)cn3)CC2)CCOCC1 [Example A123] |
| – | – | – | – | – | 0.28 nM | 0.31 nM | 0.48 nM | 609 nM | 2620 nM | CC(=O)OCCCC#Cc1ccc(C2CCN(S(=O)(=O)C3(C(=O)NO)CCOCC3)CC2)nc1 [Example A135] |
| – | – | – | – | – | 22.2 nM | 958 nM | 1520 nM | > 10000 nM | > 10000 nM | CN(C(=O)CCCC1CCN(S(=O)(=O)C2(C(=O)NO)CCOCC2)CC1)C1CCCCC1 [Example A144] |
| – | – | – | – | – | 0.92 nM | 213 nM | 274 nM | > 10000 nM | 4440 nM | O=C(/C=C/C=C/C1CCN(S(=O)(=O)C2(C(=O)NO)CCOCC2)CC1)N1C[C@H]2CCCC[C@H]2C1 [Example A81] |
| – | – | – | – | – | 0.34 nM | 1.28 nM | 0.8 nM | 4410 nM | 9730 nM | O=C(NO)C1(S(=O)(=O)N2CCC(c3ccc(CCC(F)(F)C(F)(F)F)cn3)CC2)Cc2ccccc2C1 [Example A113] |
| – | – | – | – | – | 2.54 nM | 36.5 nM | 2.94 nM | > 10000 nM | > 10000 nM | O=C(NO)C1(S(=O)(=O)N2CCC(F)(c3ccc(CCCC(F)(F)F)cn3)CC2)CCOCC1 [Example A157] |
| – | – | – | – | – | 0.18 nM | 21.8 nM | 65.8 nM | 7960 nM | 512 nM | O=C(CCCCC1CCN(S(=O)(=O)C2(C(=O)NO)CCOCC2)CC1)N1CCc2ccccc2C1 [Example A74] |
| 0.39 nM | 0.5 nM | 0.22 nM | 1840 nM | 4370 nM | – | – | – | – | – | CC(F)(F)CCc1ccc(C2CCN(S(=O)(=O)C3(C(=O)NO)CCOCC3)CC2)nc1 [Example A63, 4-({4-[5-(3,3-difluorobutyl)pyridin-2-yl]piperidin-1-yl}sulfonyl)-N-hydroxytetrahydro-2H-pyran-4-carboxamide Hydrochloride] |
| – | – | – | – | – | 0.37 nM | 175 nM | 1910 nM | > 10000 nM | > 10000 nM | O=C(NO)C1(S(=O)(=O)N2CCC(OCCCn3nnc(-c4ccc(OC(F)(F)F)cc4)n3)CC2)CCOCC1 [Example A153] |
| 0.22 nM | 0.66 nM | 0.07 nM | 1350 nM | 4450 nM | – | – | – | – | – | O=C(NO)C1(S(=O)(=O)N2CCC(c3cnc(OCCC4CC4)cn3)CC2)CCOCC1 [Example A67, 4-({4-[5-(2-cyclopropylethoxy)pyrazin-2-yl]piperidin-1-yl}sulfonyl)-N-hydroxytetrahydro-2H-pyran-4-carboxamide] |
